From patent publication US6407316B1, “Method of increasing foreign protein expression” (priority 1997, dated 2002)

Columns and labels:
delta-endotoxin = assay: Delta-endotoxin level in tissues of field-grown NuCotn 32B after in-furrow aldicarb; assay type: in vivo, cotton (NuCotn® 32B); conditions: Temik 15G in furrow, about 0.5 kg/ha active ingredient; various points in the growing season
Experimental: Seeds of NuCotn® 32B are planted in a field. Aldicarb, in the form of the commercial product Temik® 15G (a 15% weight/weight granular formulation) is applied in the furrow that comprises the seed at a rate of about 0.5 kg/ha of active ingredient or 3.3 kg/ha of commercial product. At various points in the growing season, the plant tissues are tested for the levels of the delta-endotoxin.

NuCotn® 32B = assay: Number of bolls on field-grown NuCotn 32B after side-dress aldicarb; assay type: in vivo, cotton; conditions: Temik 15G side-dress 7.8 kg/ha commercial product; after a full growing season
Text: (§1) Seeds of NuCotn® 32B are planted in a field. Aldicarb, in the form of the commercial product Temik® 15G (a 15% weight/weight granular formulation) is applied as a side-dress at 7.8 kg/ha of commercial product. […] The amount of damage due to bollworm attack on the cotton is less in those treated with aldicarb in comparison to those not treated with aldicarb.

bollworm = assay: Bollworm damage on field-grown NuCotn 32B after side-dress aldicarb; assay type: in vivo; conditions: Temik 15G side-dress 7.8 kg/ha commercial product; after a full growing season
Text: as §1

Heliothis virescens = assay: Bt cotton tissue incorporated into Heliothis diet, pupation bioassay (EC50P); assay type: in vivo; conditions: aldicarb at plant, tissue collected after 90 days
Experimental: Cotton leaves and squares were collected from treatments of Bt Cotton wherein the cotton was treated with Temik® 15G under the following conditions;
A) 0.45 lbs active ingredient per acre at plant (0.5 kg/ha)
B) […] active ingredient per acre at plant; […] and
C) 0.75 lbs active ingredient per acre (0.84 kg/ha) at plant and followed 3 weeks later by a side-dress treatment of 1.0 lbs per acre (1.12 kg/ha) of active ingredient.
One planting was not treated with aldicarb.
After 90 days leaves and squares were collected, washed with soap and water, allowed to dry, washed with acetone, allowed to dry and finally washed with chloroform. The tissues were then freeze dried, ground in a mortar and pestle and stored at room temperature.
The cotton tissues were incorporated into a Heliothis diet and fed to Heliothis virescens. The larvae in the cups were weighed at seven days after infestation and the number of pupae were counted 14 and 21 days after infestation. The percent pupation was calculated at the different concentrations and the EC50P (the amount of tissue per liter of diet that reduced pupation by 50%) was calculated for each insecticide treatment to express the amount of toxin activity in the treatment.

Roundup Ready® Cotton [1] = assay: Fruiting of Roundup Ready Cotton, insecticide at planting, Roundup at four-leaf stage; assay type: in vivo; conditions: for % change from UTC (Squares per Plant) / Squares per Plant / % change from UTC (Squares + Bolls) / Squares + Bolls: Roundup at four-leaf stage; for % change from UTC (Squares per Plant) / Squares per Plant: 45 days after Roundup treatment; for % change from UTC (Squares + Bolls) / Squares + Bolls: after 62 days
Experimental: (§2) A plot of Roundup Ready® Cotton (RRC was grown up. One part of the plot was treated with Temik® at a rate of 5.6 kg/ha of commercial product at the time of planting of the seed. Another part was treated with Disyston® (disulfoton) at 22.24 kg of commercial product/ha the time of planting of the seed. Another part of the plot was grown from seed treated with Gauch® (imidactoprid) at a rate of 0.357 kg of commercial product per 100 kg of seed. One part of the plot was left untreated by an insecticide which is called hereafter the untreated check (UTC).
The isopropylamine salt of glyphosate was applied to all the cotton plants at the four-leaf stage in the form of the commercial product Roundup® at a rate of 32 oz of commercial product per acre (=[…] of active ingredient). The following results were observed 45 days after the Roundup® treatment:
After 62 days, many squares had matured to bolls and the following observations were made: […]

Roundup Ready® Cotton [2] = assay: Fruiting of Roundup Ready Cotton, insecticide at planting, Roundup at six-leaf stage; assay type: in vivo; conditions: for % change from UTC (Squares per Plant) / Squares per Plant: 40 days after Roundup treatment; for % change from UTC (Square & Bolls) / Square & Bolls: after 57 days
Experimental: as §2
Roundup Ready® Cotton was grown up as in Example 5 and treated with Roundup at the six-leaf stage.
The following results were observed 40 days after the Roundup® treatment:
After 57 days, many of the square had matured to bolls.

| Structure (SMILES) | level of the delta-endotoxin in plant tissues vs plants not treated (delta-endotoxin) | number of bolls on the plants vs not treated (NuCotn® 32B) | amount of damage due to bollworm attack vs not treated (bollworm) | amount of tissue to reduce pupation by 50% (EC50P) vs untreated check (Heliothis virescens; leaf tissue, reading three weeks after infestation) | amount of tissue to reduce pupation by 50% (EC50P) vs untreated check (Heliothis virescens; leaf tissue, reading two weeks after infestation) | amount of tissue to reduce pupation by 50% (EC50P) vs untreated check (Heliothis virescens; square tissue, reading three weeks after infestation) | amount of tissue to reduce pupation by 50% (EC50P) vs untreated check (Heliothis virescens; square tissue, reading two weeks after infestation) | % change from UTC (Squares per Plant) (Roundup Ready® Cotton [1]) | Squares per Plant (Roundup Ready® Cotton [1]) | % change from UTC (Squares + Bolls) (Roundup Ready® Cotton [1]) | Squares + Bolls (Roundup Ready® Cotton [1]) | yield of cotton compared with UTC or cotton treated with other pesticides (Roundup Ready® Cotton [1]; herbicide at the four-leaf stage, summary of Example 5) | % change from UTC (Squares per Plant) (Roundup Ready® Cotton [2]) | Squares per Plant (Roundup Ready® Cotton [2]) | % change from UTC (Square & Bolls) (Roundup Ready® Cotton [2]) | Square & Bolls (Roundup Ready® Cotton [2]) |
| --- | --- | --- | --- | --- | --- | --- | --- | --- | --- | --- | --- | --- | --- | --- | --- | --- |
| CNC(=O)ON=CC(C)(C)SC [aldicarb, 2-methyl-2-(methylthio)propionaldehyde O-(methylcarbamoyl)oxime] | higher level of the endotoxin | larger number of bolls | less | higher amounts of tissue | higher amounts of tissue | lesser amounts of tissue | lesser amounts of tissue | +21% | 9.05 | +18.7% | 18.7 | increases the yield of cotton | +23% | 10.95 | +11% | 16.0 |
| CCOP(=S)(OCC)SCCSCC [disulfoton] |  |  |  |  |  |  |  | +2% | 7.65 | −15.0% | 12.8 |  | −36% | 5.65 | +14% | 16.5 |
| O=[N+]([O-])N=C1NCCN1Cc1ccc(Cl)nc1 [imidacloprid, 1-(6-chloro-3-pyridylmethyl)-N-nitroimidazolidin-2-ylideneamine] |  |  |  |  |  |  |  | +18% | 8.70 | −0.2% | 14.8 |  | −14% | 7.60 | +14% | 16.5 |
